Reference: patent US20150265644A1, “THERAPEUTIC METHODS AND COMPOSITIONS FOR TREATING DIABETES UTILIZING DITERPENOID COMPOUNDS” (Orient Europharma Co., Ltd., priority 2014, published 2015)

How the values were obtained:
[1] = Intraperitoneal glucose tolerance test; type: in vivo, mice; conditions: metformin-treated group, compared to the vehicle group, normal and type 2 DM mice
Method: (§1) After three days of acclimatization, the mice had free access to a standard rodent chow (normal mice), a standard rodent chow after single 250 mgkg^−1 streptozotocin (STZ) intraperitoneal injection (TIDM mice), and a fat-rich chow diet and fructose-sweetened water (T2DM mice) for 4 weeks. The induction of Type 1 DM was assessed and confirmed when the mice had plasma glucose levels ≧350 mgdL^−1, accompanied with polyuria, hyperphagia and decreased body weight. The induction Type 2 DM in the mice was assessed by measuring fasting plasma glucose levels and confirmed when plasma glucose level was ≧150 mgdL^−1 after the 4-week induction. The animals were assigned randomly into three groups, with seven animals in each group. In group I, the mice were treated with vehicle, 2% DMSO in normal saline, as the negative control. In group II, the mice were intraperitoneally treated with borapetoside A (0.1-10 mgkg^−1). In […], the mice received intraperitoneally metformin (300 mgkg^−1; Sigma Chemical Co., St. Louis, Mo., U.S.A.) or insulin (0.5 IUkg^−1; Insulin Actrapid® HM; Novo Nordisk, Denmark). In the acute study, mice under anesthesia received a single intraperitoneal administration of borapetoside A, negative control, or positive control. In the subacute study, mice received intraperitoneal administrations of borapetoside A, vehicle, or insulin twice a day for seven days.
(§2) Blood samples were collected from the orbital vascular plexus of the mice under anesthesia. Blood samples were then centrifuged at 13000 rpm for 5 min, and the plasma samples were collected and kept on ice prior to the assay. The plasma glucose concentration was measured by Glucose Kit Reagent (Biosystems S.A., Barcelona, Spain) following the manufacturer's instructions, and the insulin levels were estimated using mouse insulin ELISA kit (Mercodia AB, Uppsala, Sweden).
The mice were maintained under anesthesia throughout the procedure. Glucose (2.0 gkg^−1) was administered intraperitoneally. Blood samples were collected from the orbital vascular plexus at 0, 30, 60, 120 min. The concentrations of the plasma glucose were measured, and the values of AUC were calculated accordingly.

[2] = Plasma insulin level before and after treatment in mice; type: in vivo
Method: The 4-week-old male ICR mice were purchased from the Animal Center of the College of Medicine, National Taiwan University (Taipei, Taiwan) with delicate humane care. This animal study was conducted by following the University ethical guidelines and the ‘Guide for the Care and Use of Laboratory Animals’ published by the US National Institutes of Health (NIH publication no. 85-23, revised 1996). The animal experiments were approved by the Institutional Animal Care and Use Committee (IACUC) of the National Taiwan University (IACUC No. 20110073). Animals were housed in a room at the constant temperature, 22±1° C., with 12 hours light and dark cycles.
as §1, §2

IL-6-treated C2C12 cells = assay: Glycogen content assay in IL-6-induced insulin resistant C2C12 cells; type: cell-based; conditions: IL-6-treated C2C12, 1 nM insulin, 30 minutes
Method: The C2C12 skeletal muscle cells were cultured in Dulbecco's modified Eagle's medium (DMEM; Gibco/Invitrogen, Carlsbad, Calif.), and the human hepatocellular carcinoma cell line, Hl-ep3B, was cultured in Roswell Park Memorial Institute medium 1640 (RPMI 1640 medium; Gibco/Invitrogen, Carlsbad, Calif.). Cells were cultured at 37° C. in the humidified incubator supplied with 5% CO2. Culture mediums were supplemented with 4.5 mgmL^−1 glucose, penicillin 100 IUmL^−1, streptomycin 100 μgmL^−1 and 10% fetal bovine serum (Gibco/Invitrogen, Carlsbad, Calif.). Only C2C12 cells were then switched to 2% horse serum for 3 days after reaching the 70% confluence. Myotubes formation was achieved after 4 days of incubation, and the cells were used for subsequent experiments. Culture mediums were replaced by serum free DMEM or RPMI for 24 h before experiments (see e.g., procedure described in Sultan et al., 2006).
C2C12 and Hep3B cells were treated with 1 nM insulin, 100 μM metformin, and the assigned concentration of borapetoside A for 30 minutes. To develop the insulin resistance state of cells, C2C12 cells were incubated with IL-6 at 20 ngmL^−1 for 1 hour. Later, the cells were treated with 1 nM insulin, 100 μM metformin, and the assigned concentration of borapetoside A for 30 minutes. After the assigned treatment, cells were washed twice with phosphate buffered saline (PBS). Glycogen content was measured as previously described, with some modifications (see e.g., Savage et al., 2008). The protein concentrations of the cell lysates were determined by using Pierce BCA Protein Assay Kit (Thermo-Scientific, Rockford, Ill.). The glycogen content of each sample was normalized by total protein.

liver = assay: Glycogen content in liver in vivo; set-up: species or system mice; conditions: mice with type 2 DM, insulin 0.5 IUkg^−1 i.p.
Method: (§3) The mice were injected with borapetoside A (10 mgkg^−1, interperitoneal) for 60 minutes or insulin (0.5 IUkg^−1, interperitoneal) for 30 minutes. After the treatment, the anesthetic mice were sacrificed by cervical dislocation to collect the soleus muscle and liver. About 40 mg of each sample was dissolved in 1 mol/L KOH at 75° C. for 30 min. The dissolved homogenate was neutralized by glacial acetic acid and then incubated overnight in acetate buffer (0.3 mol/L sodium acetate, pH 4.8) containing amyloglucosidase (Sigma, St. Louis, Mo.). The mixture was then neutralized with 1 mol/L NaOH to stop the reaction. The glycogen contents in the tissue samples were determined as μg of glucose per mg of tissue (wet weight).

soleus muscle = assay: Glycogen content in soleus muscle in vivo; set-up: species or system mice; conditions: mice with type 2 DM, insulin 0.5 IUkg^−1 i.p.
Method: as §3

Row | Molecule | increase of plasma glucose level at 30 min [1] | Plasma insulin ([2]; T1DM mice, metformin 300 mgkg^−1, after-treatment) | Plasma insulin ([2]; T1DM mice, metformin 300 mgkg^−1, before-treatment) | Plasma insulin ([2]; T2DM mice, metformin 300 mgkg^−1, after-treatment) | Plasma insulin ([2]; T2DM mice, metformin 300 mgkg^−1, before-treatment) | Plasma insulin ([2]; normal mice, metformin 300 mgkg^−1, after-treatment) | Plasma insulin ([2]; normal mice, metformin 300 mgkg^−1, before-treatment) | glycogen content (IL-6-treated C2C12 cells) | glycogen synthesis in liver (liver) | glycogen synthesis in soleus muscle (soleus muscle)
1 | CN(C)C(=N)N=C(N)N [Metformin, metformin, reference compound] | significantly suppressed | 22.7 ± 0.3 pmol/L | 22.4 ± 0.4 pmol/L | 182.0 ± 27.7 pmol/L | 148.1 ± 15.2 pmol/L | 72 ± 3.1 pmol/L | 66.6 ± 1.3 pmol/L |  |  | 
2 | insulin: short-acting insulin, Insulin Actrapid HM (Novo Nordisk), positive control 0.5 IUkg^−1 [reference compound] |  |  |  |  |  |  |  | not increased | failed to enhance | failed to enhance
